Source: ChEMBL document CHEMBL4368883, “Identification of the first enantiopure Rac1-Tiam1 protein-protein interaction inhibitor and its optimized synthesis via phosphine free remote group directed hydroarylation” (Medchemcomm, 2019)
Active and inactive are the calls of the source. The rule behind the calls is not given here.

How the values were obtained:
[1] = biological target: T1, Ras-related C3 botulinum toxin substrate 1/T-lymphoma invasion and metastasis-inducing protein 1 (Homo sapiens) (UniProt P63000+Q13009); assay: Inhibition of Rac1-Tiam1 protein-protein interaction in human A617 cells assessed as reduction in intracellular Rac1-GTP levels at 1 to 10 uM after 4 hrs by G-LISA assay; assay type: cell-based
[2] = biological target: T1, Ras-related C3 botulinum toxin substrate 1/T-lymphoma invasion and metastasis-inducing protein 1 (Homo sapiens); assay: Inhibition of Rac1-Tiam1 protein-protein interaction in human A617 cells assessed as reduction in intracellular Rac1-GTP levels at 10 uM after 4 hrs by G-LISA assay relative to control; assay type: cell-based

SMILES: CCOC(=O)C1(N)C2CC(CC2c2cccc(Nc3ccc(N)cc3)c2)C1Sc1ccccc1 (racemic)
- inhibition [1]: inactive
- inhibition [2]: 17.2%
